In the Deep4Chem optical property database:
Values joined by “and” are separate entries in the source; they are usually repeats but may differ in a detail not shown here. Equal entries are not always repeated.

Test: solvent given as SMILES

## C(=C(c1ccccc1)c1ccccc1)c1ccc(-c2cc(-c3ccc(C=C(c4ccccc4)c4ccccc4)cc3)cc(-c3ccc(C=C(c4ccccc4)c4ccccc4)cc3)c2)cc1
In C1CCOC1
  emission maximum: 446 nm

## CCCCn1c(-c2ccc(-c3nnc(-c4ccccc4)o3)cc2)nc2c3ccccc3c3ccccc3c21
In ClCCl
  emission maximum: 446 nm

## CC(C)[Si](C#Cc1ccc(C#C[Si](C(C)C)(C(C)C)C(C)C)c2nc3c(ccc4cc5ccccc5cc43)nc12)(C(C)C)C(C)C
In CCCCCC
  emission maximum: 466 nm

## CC(C)(C)c1ccc2c(c1)c1cc(C(C)(C)C)cc3c1n2-c1cc(-c2ccccc2F)cc2c1B3c1cc(C(C)(C)C)cc3c4cc(C(C)(C)C)ccc4n-2c13
In Cc1ccccc1
  emission maximum: 499.76 nm

## F[B-]1(F)n2c(-c3cccs3)cc(-c3cccs3)c2N=C2C(c3cccs3)=CC(c3cccs3)=[N+]21
In C1CCOC1
  emission maximum: 763 nm
In CC#N
  emission maximum: 757 nm
In CS(C)=O
  emission maximum: 775 nm
In Cc1ccccc1
  emission maximum: 765 nm
In ClCCl
  emission maximum: 764 nm

## O=C([O-])c1c2ccccc2c(C(=O)[O-])c2ccccc12
In CN(C)C=O
  emission maximum: 410 nm

## CC1(C)Oc2c(c3nc4ccccc4nc3c3ccccc23)CC1Br (stereo not drawn)
In C1CCCCC1
  emission maximum: 431.03 nm
In C1CCOC1
  emission maximum: 448.83 nm
In C1COCCO1
  emission maximum: 449.44 nm
In CC#N
  emission maximum: 457.04 nm
In CC(C)O
  emission maximum: 464.25 nm
In CCCCCC
  emission maximum: 430.66 nm
In CN(C)C=O
  emission maximum: 458.3 nm
In CO
  emission maximum: 475.96 nm
In c1ccccc1
  emission maximum: 444.25 nm

## CC(=O)c1ccc(-c2cnc3nn4ccccc4c3n2)cc1
In C1CCOC1
  emission maximum: 455 nm

## O=C1C2=C(O[B-](F)(F)[n+]3c2ccc2ccccc23)c2cccc3c(N4CCOCC4)ccc1c23
In C1CCOC1
  emission maximum: 596 nm
In CC#N
  emission maximum: 620 nm
In CCO
  emission maximum: 584 nm
In CO
  emission maximum: 564 nm
In ClCCl
  emission maximum: 588 nm

## COc1cc(N(CC(=O)[O-])CC(=O)[O-])c2nc(COc3cc(C)ccc3N(CC(=O)[O-])CC(=O)[O-])ccc2c1
In O
  emission maximum: 500 nm

## [NH3+]c1cc([NH3+])cc(-c2[nH+]c3ccccc3s2)c1
In O
  emission maximum: 460 nm

## C(=C\c1nc2ccccc2[nH]1)/c1ccc(-c2nc3c4cccnc4c4ncccc4c3[nH]2)cc1
In C1CCOC1
  emission maximum: 444 nm
In CC#N
  emission maximum: 450 nm
In CO
  emission maximum: 452 nm
In ClCCl
  emission maximum: 447 nm

## O=C([O-])c1cc2c(ccc3ccccc32)oc1=O
In O
  emission maximum: 428 nm

## N#Cc1nn(-c2ccc(F)cc2)nc1N1CCCC1
In CC#N
  emission maximum: 422 nm

## O=[N+]([O-])c1ccc(S(=O)(=O)Nc2ccc(C#Cc3ccc4ccc5ccc(C#Cc6ccc(NS(=O)(=O)c7ccc([N+](=O)[O-])cc7[N+](=O)[O-])cc6)c6ccc3c4c56)cc2)c([N+](=O)[O-])c1
In CO
  emission maximum: 539 nm

## COc1cc(OC)c2cc(C#N)c(=N)oc2c1
In ClCCl
  emission maximum: 428 nm

## COc1cc(/C=C/c2nc3ccccc3s2)c(OC)cc1/C=C/c1nc(C)nc(/C=C/c2cc(OC)c(/C=C/c3nc4ccccc4s3)cc2OC)n1
In C1CCOC1
  emission maximum: 490 nm
In CC#N
  emission maximum: 505 nm
In ClC(Cl)Cl
  emission maximum: 500 nm
In ClCCl
  emission maximum: 502 nm

## c1ccc(-c2c3ccccc3nc3cc4ccccc4cc23)cc1
In ClCCl
  emission maximum: 525 nm

## Cc1ccc2[nH]c(-c3ccc(-c4ccc(-c5ccc(-c6nc7cc(C)ccc7[nH]6)cc5)c(F)c4)cc3)nc2c1
In CN(C)C=O
  emission maximum: 423 nm

## CC(C)(C)c1ccc2c(c1)c1cc(C(C)(C)C)ccc1n2-c1ccccc1-c1nccnc1C#N
In Cc1ccccc1
  emission maximum: 490 nm
In c1cc(-n2c3ccccc3c3ccccc32)cc(-n2c3ccccc3c3ccccc32)c1
  emission maximum: 483 nm

## C#Cc1ccc2cc3c(C)cc(=O)oc3cc2c1
In CCO
  emission maximum: 437 nm

## O=C(c1ccc(-n2c3ccccc3c3ccccc32)cc1)c1ccc(-n2c3ccccc3c3ccccc32)cc1
In Cc1ccccc1
  emission maximum: 438 nm
In O=P(c1ccccc1)(c1ccccc1)c1ccccc1Oc1ccccc1P(=O)(c1ccccc1)c1ccccc1
  emission maximum: 444 nm

## c1ccc2c(c1)-c1ccccc1C21c2ccccc2N(c2ccc(-c3nc([C@]45CC6CC(C[C@@H](C6)C4)C5)nc([C@]45C[C@H]6C[C@@H](C[C@H](C6)C4)C5)n3)cc2)c2ccccc21
In CC(C)(C)c1ccc(-n2c3ccc([Si](c4ccccc4)(c4ccccc4)c4ccccc4)cc3c3cc([Si](c4ccccc4)(c4ccccc4)c4ccccc4)ccc32)cc1
  emission maximum: 448.69 nm
In Cc1ccccc1
  emission maximum: 454.71 nm

## CN(C)c1ccc2c(c1)C(=O)NC2=O
In C1CCOC1
  emission maximum: 459 nm
In C1COCCO1
  emission maximum: 457 nm
In CC#N
  emission maximum: 490 nm
In CC(C)(C)O
  emission maximum: 516 nm
In CC(C)=O
  emission maximum: 483 nm
In CC(C)O
  emission maximum: 523 nm
In CCOCC
  emission maximum: 440 nm
In CO
  emission maximum: 534 nm
In O
  emission maximum: 562 nm

## COc1ccc(/C=C/C2=[O+][B-](F)(F)OC(/C=C/c3ccc(OC)cc3)=C2c2ccc(OC)cc2)cc1
In ClCCl
  emission maximum: 571 nm

## CNc1cccc2c1-c1ccccc1C2=O
In C1CCCCC1
  emission maximum: 536 nm
In CC#N
  emission maximum: 638 nm
In CCO
  emission maximum: 686 nm
In c1ccccc1
  emission maximum: 570 nm

## Cn1nc(-c2ccccc2)c2nc3cc(F)ccc3nc21
In C1CCCCC1
  emission maximum: 486 nm
In C1CCOC1
  emission maximum: 520 nm
In CC#N
  emission maximum: 535 nm

## CCCCC1=Cc2c3ccc4cccc5ccc(c6cc(-c7ccccc7)n(c26)P1(=O)c1ccccc1)c3c45 (stereo not drawn)
In C1CCCCC1
  emission maximum: 452 nm
In C1CCOC1
  emission maximum: 459 nm
In C1COCCO1
  emission maximum: 460 nm
In CC#N
  emission maximum: 459 nm
In CC(C)=O
  emission maximum: 459 nm
In CO
  emission maximum: 459 nm
In Cc1ccccc1
  emission maximum: 460 nm
In ClC(Cl)Cl
  emission maximum: 458 nm
In ClCCl
  emission maximum: 459 nm

## N#C/C(=C\c1ccc(Cl)cc1)c1nc(-c2ccccc2)cs1
In CC#N
  emission maximum: 480 nm

## OC1(c2ccc(-c3cccs3)s2)CCCCC1
In C1CCOC1
  emission maximum: 458 nm
In CC#N
  emission maximum: 466 nm
In CCCCCC
  emission maximum: 465 nm
In CCO
  emission maximum: 465 nm
In OCCOCCO
  emission maximum: 447 nm
In c1ccncc1
  emission maximum: 475 nm

## O=C(O)CCCOc1cc2ccc3cccc4ccc(c1)c2c34
In CO
  emission maximum: 382 nm

## O=Cc1cnc(-c2c3ccccc3cc3ccccc23)nc1
In CCO
  emission maximum: 438 nm
In ClCCl
  emission maximum: 531 nm

## CCc1ccc(/C=C/c2ccc(-c3nnc(-c4ccc(-c5cc6ccccc6s5)cc4)o3)cc2)cc1
In CC#N
  emission maximum: 421 nm
In CC(C)=O
  emission maximum: 420 nm
In CCCCCCCC
  emission maximum: 389 nm
In CCCCCCCCCCO
  emission maximum: 420 nm
In CCCCCCCCO
  emission maximum: 421 nm
In CCCCCO
  emission maximum: 421 nm
In CCCO
  emission maximum: 422 nm
In CN(C)C=O
  emission maximum: 429 nm
In CO
  emission maximum: 426 nm
In CS(C)=O
  emission maximum: 433 nm

## CCOC(=O)c1ccccc1-c1c2ccc(=[N+](CC)CC)cc-2oc2c1oc1cc(N)ccc12
In CCO
  emission maximum: 640 nm
In ClCCl
  emission maximum: 627 nm
In O
  emission maximum: 645 nm

## CC1(C)C(/C=C/C2=C(c3ccc(C(=O)O)cc3)C(=C/C=C3/N(CCCCS(=O)(=O)[O-])c4ccc(S(=O)(=O)[O-])cc4C3(C)C)/CCC2)=[N+](CCCCS(=O)(=O)[O-])c2ccc(S(=O)(=O)[O-])cc21
In CO
  emission maximum: 785 nm and 790 nm

## Cc1cc(C)c(C)c(-c2cc(-c3c(C)c(C)cc(C)c3C)c3ccc4c(-c5c(C)c(C)cc(C)c5C)cc(-c5c(C)c(C)cc(C)c5C)c5ccc2c3c54)c1C
In ClCCl
  emission maximum: 412 nm

## BrCCCCCCCCCCCCOc1cc2ccc3cccc4ccc(c1)c2c34
In Cc1ccccc1
  emission maximum: 384 nm

## C=CCOc1ccc(-c2nc3cc(C(NC(=O)OC(C)(C)C)C(=O)OC)ccc3o2)cc1 (stereo not drawn)
In CC1CCCCC1
  emission maximum: 329 nm
In CC#N
  emission maximum: 333 nm
In CO
  emission maximum: 353 nm
